The text below walks through data of patent US20130143969A1 (THE OHIO STATE UNIVERSITY, priority 2010, published 2013).

One may read the AUC as concentration integrated over time.

Series [1] is described as follows: in vivo. Conditions: for concentration at 10 min / concentration at 20 min / concentration at 30 min / concentration at 45 min / concentration at 60 min / concentration at 90 min / concentration at 120 min / concentration at 240 min / concentration at 480 min: CD2F1, mouse, in vivo; for AUC as % curcumin (relative percentage): oral 1.8 g/kg curcumin gel; for AUC: oral 1.8 g/kg curcumin gel in 66.7% PEG 600 + 33.3% Cremophor EL. The source says:
Extracts of bio-matrices were subjected to HPLC mass spectrometric analysis.

Series [2] has as its system p15^INK4B. Kind of series: Quantitative RT-PCR of p15INK4B mRNA in leukemia cells. The format is cell-based. Conditions: MV4-11 cells, decitabine 2.5 μM, 72 hours. The method, then:
(§1) Cell Cycle and Apoptosis Analysis: MV4-11, ML-1, HL-60 and K562 leukemia cell lines were cultured in RPMI medium (VWR International, Inc., West Chester, Pa.) supplemented with 10% fetal bovine serum (Invitrogen, Carlsbad, Calif.) and 1% (v/v) penicillin/streptomycin (Invitrogen Life Technologies; Carlsbad, Calif.) antibiotic solution at 37° C. in an incubator under 5% CO2 atmosphere. For the ex-vivo studies, mononuclear cells obtained from bone marrow (BM) of patient with AML were prepared by Ficoll-Hypaque (Nygaard) gradient centrifugation and cultured with serum-free expansion medium (SFEM) (StemCell technologies, Vancouver, BC) supplemented with GM-CSF (50 ng/ml), IL-3 (20 ng/ml), IL-6 (20 ng/ml) and SCF ([…]). […] The cell cycle and apoptosis of MV4-11 cells was analyzed on a BD FACS Calibur (Beckman Coulter, Fullerton, Calif.) according to the standard protocol provided by the manufacturer.
Quantitative RT-PCR was used to quantify the mRNA levels of DNMT1, DNMT3a, DNMT3b, p15INK4B and p21. Total RNA was extracted with Trizol reagent (Invitrogen, Carlsbad, Calif.) and reverse transcribed by reverse transcriptase (Invitrogen). Quantitative real-time PCR reactions were performed in triplicate using Taqman gene expression assay (Applied Biosystems) with an ABI prism 7700 detector (Applied Biosystems). The target gene values were normalized to the values of internal control GAPDH or 18 S, and expressed as relative percent change (100×2^(˜ΔΔCt)) over non-treated samples.

The test system of series [3] is p15^INK4B promoter region. Put plainly: DNA methylation analysis of the p15INK4B promoter region (LC-MS/MS). The format is cell-based. Conditions: MV4-11 cells, decitabine 2.5 μM, 72 hours. Here is the method:
Genomic DNA isolated from MV4-11 cells was treated with bisulfite using the Epi methylation Kit (Qiagen, Minneapolis, Minn.) according to the instruction from the manufacturer and followed by PCR amplification as follows. The sequences of p15^INK4B primers were: forward 5′-GGGAGGGTAATGAAGTTGAGTTTA-3′ (SEQ ID NO. 1), and reverse 5′-ACCCTAAAACCCCAACTACCTAAAT-3′ (SEQ ID NO. 2). PCR amplifications were performed as follows: 95° C. for 5.5 min, 55° C. for 30s for 5 cycles, and 52° C. for 30 s for 38 cycles, 72° C. for 30s for 38 cycles, with a final step at 72° C. for 1 min. PCRs were carried out in a 100 μl volume containing 10 μl of buffer (10×), 2 μL of each primer (10 μM), 2 μL of (10 mM) dNTPs, 2 U of Platinum Taq DNA polymerase (Invitrogen, Carlsbad, Calif.), 70.6 μL ddH2O and 10 μL of bisulfite treated DNA in a GeneAmp 9700 thermal cycler (Perkin-Elmer, Norwalk, Conn.). PCR products were purified using QIAquick columns and eluted in water. A 500 ng aliquot of the PCR product was incubated with 25 UM. […] Fully methylated PCR products were purified using the QIAquick PCR Purification kit (Qiagen, Minneapolis, Minn.), according to the manufacturer's instructions and 200 ng of the purified DNA was hydrolyzed and the concentrations of 5mdC and 2dC in the hydrolysate were measured by LC-MS/MS using the conditions as described previously.

Series [4] deals with MV4-11 cells. Put plainly: Cell cycle distribution by flow cytometry. The format is cell-based. As to conditions: 2.5 μM decitabine. Here is the method:
as §1

[5] abbreviates: mouse, oral 1.8 g/kg curcumin in 66.7% PEG 600 + 33.3% Cremophor EL, 1440 min.

In series [1], `O=C(/C=C/c1ccc(O)cc1)CC(=O)/C=C/c1ccc(O)cc1` [BDMO, bisdesmethoxycurcumin] yielded a concentration at 10 min of 65.7 ng/mL, a concentration at 20 min of 115 ng/mL, a concentration at 30 min of 51.4 ng/mL and a concentration at 45 min of 66.9 ng/mL. For the same molecule, in series [1], the concentration at 60 min was determined as 37.3 ng/mL, the concentration at 90 min came to 11.1 ng/mL, the concentration at 120 min is 15.4 ng/mL and the concentration at 240 min came to 34.5 ng/mL. The concentration at 480 min in series [1] was determined as 10.9 ng/mL.

In series [1], `COc1cc(/C=C/C(O)=C/C(=O)/C=C/c2ccc(O)cc2)ccc1O` [DMO, desmethoxycurcumin] had a concentration at 10 min of 148 ng/mL, a concentration at 20 min of 224 ng/mL, a concentration at 30 min of 108 ng/mL and a concentration at 45 min of 118 ng/mL. In series [1], this molecule yielded a concentration at 60 min of 76.5 ng/mL, a concentration at 90 min of 29.1 ng/mL, a concentration at 120 min of 39.5 ng/mL and a concentration at 240 min of 40.4 ng/mL. The molecule further registered a concentration at 480 min in series [1] of 15.4 ng/mL.

Turning to `COc1cc(/C=C/C(=O)CC(=O)/C=C/c2ccc(O[C@@H]3O[C@H](C(=O)O)[C@@H](O)[C@H](O)[C@H]3O)c(OC)c2)ccc1O` [GLU, curcumin O-monoglucuronide], the “AUC as % curcumin (relative percentage)” value in series [1] (mouse) worked out at 382.0%. Also, in series [1] (mouse), the AUC worked out at 1863.2 µM·min. For the same molecule, the plasma level is on record as 24.2129 ng/mL in series [1] (setting [5]); 3083.366 ng/mL in series [1] (same dosing, 10 min); 4428.71 ng/mL in series [1] (same dosing, 20 min); 5469.386 ng/mL in series [1] (same dosing, 30 min); 2539.161 ng/mL in series [1] (same dosing, 45 min); 2057.704 ng/mL in series [1] (same dosing, 60 min). The plasma level amounted to 1336.072 ng/mL in series [1] (same dosing, 90 min); 1070.25 ng/mL in series [1] (same dosing, 120 min); 716.5084 ng/mL in series [1] (same dosing, 480 min).

With `COc1cc(CCC(=O)CC(=O)CCc2ccc(O)c(OC)c2)ccc1O` [THC, tetrahydrocurcumin], the “AUC as % curcumin (relative percentage)” value in series [1] (mouse) is 7.9%. Further, in series [1] (mouse), the AUC came to 38.29 µM·min. Also, the plasma level is given as 2.239 ng/mL in series [1] (setting [5]); 112.6977 ng/mL in series [1] (same dosing, 10 min); 238.2446 ng/mL in series [1] (same dosing, 20 min); 219.0996 ng/mL in series [1] (same dosing, 30 min); 62.5 ng/mL in series [1] (same dosing, 45 min); 39.23 ng/mL in series [1] (same dosing, 60 min). Further, the plasma level turned out to be 6.038 ng/mL in series [1] (same dosing, 90 min); 8.631 ng/mL in series [1] (same dosing, 120 min); 8.173 ng/mL in series [1] (same dosing, 240 min); 4.672 ng/mL in series [1] (same dosing, 480 min).

For `Nc1ncn([C@H]2C[C@H](O)[C@@H](CO)O2)c(=O)n1` [decitabine, Decitabine], in series [2], the “increase of p15INK4B expression level” value is recorded as ~4 fold. The “decrease of p15INK4B promoter methylation level” value in series [3] is ~25%. In series [4], the “cell population in G0/G1 phase” value was 49.4%, the “cell population in G2/M phase” value is on record as 11.7%, the “cell population in S phase” value was 26.2% and the “cell population in SubG1 phase” value is on record as 13.2%.

On to curcumin O-sulfate, for which the “AUC as % curcumin (relative percentage)” value in series [1] (mouse) came out at 3.3%. Also, in series [1] (mouse), the AUC turned out to be 16.2 µM·min. In addition, the plasma level is 0 ng/mL in series [1] (setting [5]); 29.44 ng/mL in series [1] (same dosing, 10 min); 54.83 ng/mL in series [1] (same dosing, 20 min); 43.06 ng/mL in series [1] (same dosing, 30 min); 27.51 ng/mL in series [1] (same dosing, 45 min); 18.75 ng/mL in series [1] (same dosing, 60 min). Moreover, the plasma level in series [1] (same dosing, 90 min) is listed as 8.637 ng/mL; in series [1] (same dosing, 120 min), 7.752 ng/mL; in series [1] (same dosing, 240 min) it was 9.949 ng/mL; in series [1] (same dosing, 480 min), 4.05 ng/mL.
